Patent US20230399358A1, “IMMUNOGLOBULIN PURIFICATION PEPTIDES AND THEIR USE” (North Carolina State University, priority 2019, published 2023)

Tests used:
[1] = tested on: human polyclonal IgG in CHO cell culture fluid; test: Chromatographic purification of IgG from CHO cell culture fluid on WorkBeads resin, SDS-PAGE densitometry; details: Elution 1 (pH 4), 5 min residence time, FIG. 7B
Procedure: Purification of IgG from CHO Cell culture fluids using MWRGWQC (SEQ ID NO:31)- and WQRHGIC (SEQ ID NO:30)—Workbeads: A volume of 0.1 mL of resin was packed in a PEEK microbore column, installed on a Waters 2695 unit, and equilibrated with PBS, pH 7.4. All chromatographic buffers were filtered through a compatible 0.2 μm filter prior to use. A volume of 100 μL of solution of human polyclonal IgG at 1 mg/mL in a CHO cell culture fluid at 0.205 mg/mL CHO HCPs was injected in the column at 0.02 mL/min (RT: 5 minutes). Following injection, the resin was washed with PBS at 0.2 mL/min and, subsequently, with 100 mM NaCl in PBS at 0.2 mL/min. Elution was then conducted with […] pH 4. An acidic cleaning step was conducted in 0.1 M glycine pH 2.5 to remove any proteins still bound. The absorbance of the effluent was monitored by UV/Vis spectrophotometry at 280 nm. Fractions were collected and adjusted to neutral pH. Total protein concentration was measured by BCA assay. All collected fractions were also analyzed via SDS PAGE under reducing conditions. The gel was stained by silver staining, and the overall IgG purity in the eluted fractions was determined by densitometric analysis using ImageJ software. Finally, the feed and eluted fractions were analyzed using a CHO-specific ELISA kit to determine the log removal value (LRV) of HCPs.
The high purity of the recovered IgG using WQRHGI (SEQ ID NO:1), as calculated by densitometric analysis (100%) was confirmed by the HCP LRV value of 2.7, thus indicating WQRHGI (SEQ ID NO:1) has purification abilities similar to Protein A. This is a remarkable result. […] The collected chromatographic fractions were analyzed by SDS-PAGE (FIG. 7B, silver stained to highlight diluted CHO HCPs). The % values of IgG in the fractions (expressed as a ratio of IgG concentration over total protein (e.g., IgG+CHO HCPs)) were calculated by densitometric analysis of the lanes in the SDS gel and were as follows: Control (C), 0.00%; Load (L) 59.77%; Flowthrough (FT), 0.00%; Elution 1 (El1), 100.00%; Elution 2 (El2), 0.00%; IgG 93.30%. […]

[2] = tested on: human polyclonal IgG in CHO-S cell culture fluid; test: Static purification of IgG from CHO cell culture supernatant on peptide-Toyopearl resins, SDS-PAGE densitometry; details: Gel B, lane E (pH 4)
human IgG = test: Dynamic binding capacity by breakthrough assay; details: 20 mg/mL IgG in PBS
Procedure: Measurements of dynamic binding capacity (DBC) were performed on a Waters 2695 unit. MWRGWQ (SEQ ID NO:2)—Workbeads and WQRHGIC (SEQ ID NO:30)—Workbeads resins were wet packed in a 0.1 mL microbore column and equilibrated in PBS pH 7.4. A solution of human IgG at 20 mg/mL in PBS was owed through the column at 0.05 mL/min and 0.02 mL/min, corresponding to residence times (RT) of 2 and 5 min, respectively. The bound IgG was eluted with glycine pH 2.5. The absorbance of the effluent was monitored by UV/Vis spectrophotometry at 280 nm throughout the breakthrough study. The DBC was calculated at 10% of the breakthrough curve.
Breakthrough curves (FIG. 5 panels A-D) were obtained by flowing a 20 mg/mL solution of IgG in PBS through the […] and MWRGWQC (SEQ ID NO:31)-WB adsorbents at two different flow rates (0.05 and 0.02 mL/min) corresponding to two different residence times (2 and 5 minutes).

WQRHGI
% IgG over total protein [1]: 100% | % Purity (IgG over total eluted proteins) [2]: 100% | DBC at 10% breakthrough (human IgG; residence time 2 min): 33.6 mg IgG/mL resin | DBC at 10% breakthrough (human IgG; residence time 5 min): 43.8 mg IgG/mL resin
